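These data come from cells grown in 96-well plates and exposed to compound for 48 hours at five concentrations. GI50 = concentration required for 50% inhibition of growth. TGI: concentration producing complete growth inhibition.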

Drawing on PubChem BioAssay (NCI), this text covers GI50 and TGI for 9 molecules.

Test systems include CCRF-CEM leukemia; CAKI-1 renal; MCF7 breast; RPMI-8226 leukemia; SK-MEL-28 melanoma; UACC-62 melanoma; SK-MEL-2 melanoma; MALME-3M melanoma; NCI/ADR-RES ovarian; NCI-H522 lung.
What all share (test): growth of human tumour cells (NCI), 48 h

As to `C#Cc1cccc(Nc2nc3cc([N+](=O)[O-])ccc3nc2Nc2ccc(O)cc2)c1`, the GI50 in the assay on CCRF-CEM leukemia was 1.33 µM; in the assay on CAKI-1 renal, 2.19 µM; with MCF7 breast it was 2.2 µM; in the assay on RPMI-8226 leukemia, 2.24 µM; in the assay on SK-MEL-28 melanoma it was 1.78 µM; in the assay with UACC-62 melanoma it was 1.62 µM. In addition, the GI50 in the assay on SK-MEL-2 melanoma is 2.07 µM; in the assay on MALME-3M melanoma, 1.93 µM; with NCI/ADR-RES ovarian it was 1.84 µM. Moreover, the TGI was determined as 6.01 µM in the assay on CCRF-CEM leukemia; 5.04 µM in the assay with CAKI-1 renal; 6.11 µM with MCF7 breast; 8 µM in the assay with RPMI-8226 leukemia; 3.34 µM with SK-MEL-28 melanoma; 2.99 µM in the assay with UACC-62 melanoma. Besides, the results for the TGI in the assay with SK-MEL-2 melanoma, in the assay on MALME-3M melanoma and in the assay on NCI/ADR-RES ovarian were 4.36 µM, 4.32 µM and 4.37 µM, respectively.
With `O=C(NC1CCCCC1)NS(=O)(=O)c1ccc(N2N=C3c4ccccc4CC3C2c2ccc(Cl)cc2)cc1` (stereo not given), the GI50 in the assay on CCRF-CEM leukemia was 3.85 µM; in the assay on CAKI-1 renal, 12.8 µM; with MCF7 breast it was 2.52 µM; with RPMI-8226 leukemia, 3.57 µM; with SK-MEL-28 melanoma, 29.7 µM; with UACC-62 melanoma it was 14.9 µM. Moreover, the values for the GI50 with SK-MEL-2 melanoma, in the assay with NCI/ADR-RES ovarian and with NCI-H522 lung were 24.4 µM, 20.6 µM and 9.43 µM, respectively. Besides, the TGI in the assay with CCRF-CEM leukemia is 23.8 µM; in the assay on CAKI-1 renal, 31.8 µM; with MCF7 breast it was 22.2 µM; in the assay on RPMI-8226 leukemia it was 22.6 µM; in the assay with SK-MEL-28 melanoma it was more than 100 µM; with UACC-62 melanoma it was 32.7 µM. In addition, the TGI came to 80.4 µM in the assay with SK-MEL-2 melanoma, 69.6 µM in the assay with NCI/ADR-RES ovarian and 30.9 µM with NCI-H522 lung.
On to `CC(C)[C@@H]1NC(=O)[C@]2(C)CSC(=N2)c2ccnc(c2)CNC(=O)C[C@@H](/C=C/CCS)OC1=O`, for which the GI50 in the assay on CCRF-CEM leukemia is 0.574 µM; in the assay on CAKI-1 renal, 2.86 µM; in the assay with MCF7 breast it was 0.708 µM; with RPMI-8226 leukemia, 1.49 µM; with SK-MEL-28 melanoma it was 0.119 µM; with UACC-62 melanoma, 0.0746 µM. Moreover, the values for the GI50 in the assay with SK-MEL-2 melanoma, with NCI/ADR-RES ovarian and in the assay with NCI-H522 lung were 0.0842 µM, 2.46 µM and 0.249 µM, respectively. In addition, the TGI in the assay with CCRF-CEM leukemia was more than 100 µM; in the assay on CAKI-1 renal, 15.6 µM; in the assay with MCF7 breast, more than 100 µM; with RPMI-8226 leukemia, more than 27.7 µM; in the assay with SK-MEL-28 melanoma, 3.46 µM; in the assay with UACC-62 melanoma, 0.552 µM. Further, the TGI in the assay on SK-MEL-2 melanoma is 0.516 µM; in the assay with NCI/ADR-RES ovarian, more than 61.6 µM; in the assay with NCI-H522 lung, 5.14 µM.
In the case of `COc1ccc(C(c2cc(OC)c(OC)c(OC)c2)n2cncn2)cc1O` (stereo not given), the GI50 is 0.402 µM in the assay on CCRF-CEM leukemia; 0.567 µM with CAKI-1 renal; 0.347 µM with MCF7 breast; 0.452 µM in the assay with RPMI-8226 leukemia; 0.55 µM in the assay on UACC-62 melanoma; 0.361 µM with SK-MEL-2 melanoma. Moreover, the GI50 is 1.18 µM in the assay on NCI/ADR-RES ovarian and 0.395 µM in the assay with NCI-H522 lung. Moreover, the TGI with CCRF-CEM leukemia, in the assay on CAKI-1 renal, with MCF7 breast, in the assay with RPMI-8226 leukemia, in the assay on UACC-62 melanoma and in the assay on SK-MEL-2 melanoma was more than 100 µM throughout. Also, the TGI in the assay on NCI/ADR-RES ovarian is more than 100 µM; in the assay on NCI-H522 lung it was 2.37 µM.
Consider `Fc1cc(-c2nnc3n2N=C(c2ccc(Cl)cc2)CS3)c(Cl)cc1Cl`, for which the GI50 is 0.328 µM with CCRF-CEM leukemia; 4.61 µM in the assay on CAKI-1 renal; 4.56 µM in the assay with MCF7 breast; 7.56 µM in the assay on SK-MEL-28 melanoma; 4.3 µM in the assay on UACC-62 melanoma; 27 µM in the assay on SK-MEL-2 melanoma. Also, the GI50 in the assay with MALME-3M melanoma was 2.75 µM; with NCI/ADR-RES ovarian, 9.29 µM; in the assay on NCI-H522 lung, 2.79 µM. For the same molecule, the TGI with CCRF-CEM leukemia is 1.13 µM; in the assay with CAKI-1 renal it was 17.4 µM; with MCF7 breast, 17.9 µM; in the assay with SK-MEL-28 melanoma it was 34.8 µM; with UACC-62 melanoma, 14.9 µM; in the assay with SK-MEL-2 melanoma, more than 57.8 µM. In addition, the figures for the TGI in the assay on MALME-3M melanoma and in the assay on NCI/ADR-RES ovarian were 10.5 µM and 36.8 µM, respectively.
As to `CC#Cc1ccc(-c2ccccc2)s1`, the TGI with CCRF-CEM leukemia, with CAKI-1 renal, with MCF7 breast, with SK-MEL-28 melanoma, with UACC-62 melanoma and in the assay with SK-MEL-2 melanoma was more than 100 µM each time. Moreover, the TGI in the assay on NCI/ADR-RES ovarian and with NCI-H522 lung was more than 100 µM each time.
As to `C[C@@H]1CC[C@H]2C(C)(C)[C@H]3C[C@@]12CC[C@@]3(C)O`, the TGI in the assay on CCRF-CEM leukemia is more than 100 µM; in the assay on CAKI-1 renal, more than 100 µM; in the assay on MCF7 breast, more than 100 µM; with RPMI-8226 leukemia it was 53.6 µM; with SK-MEL-28 melanoma, more than 100 µM; in the assay with UACC-62 melanoma, more than 100 µM. Also, the TGI in the assay with SK-MEL-2 melanoma, in the assay with NCI/ADR-RES ovarian and in the assay with NCI-H522 lung was more than 100 µM in each case.
On to `CCCCCCCCCCSC(=N)N` (tested in a mixture with another compound), for which the GI50 in the assay with CCRF-CEM leukemia was 3.65 µM; with CAKI-1 renal it was 2.03 µM; in the assay with MCF7 breast, 2.75 µM; with RPMI-8226 leukemia it was 2.53 µM; in the assay with SK-MEL-28 melanoma, 2.65 µM; with UACC-62 melanoma, 1.95 µM. In addition, the GI50 in the assay on MALME-3M melanoma was 2.24 µM; with NCI/ADR-RES ovarian it was 6.29 µM; with NCI-H522 lung, 1.91 µM. Moreover, the TGI was 17 µM in the assay with CCRF-CEM leukemia; 5.04 µM with CAKI-1 renal; 10.4 µM in the assay on MCF7 breast; 6.31 µM in the assay with RPMI-8226 leukemia; 8.15 µM in the assay with SK-MEL-28 melanoma; 3.96 µM in the assay with UACC-62 melanoma. For the same molecule, the TGI with MALME-3M melanoma was 5.07 µM; in the assay on NCI/ADR-RES ovarian, 25.6 µM; with NCI-H522 lung it was 4.68 µM.
On to `Cc1nnc2ccnn2c1C`, for which the GI50 in the assay on CCRF-CEM leukemia, in the assay with CAKI-1 renal, with MCF7 breast, in the assay on RPMI-8226 leukemia, with SK-MEL-28 melanoma and in the assay with UACC-62 melanoma was more than 100 µM each time. The values for the GI50 with SK-MEL-2 melanoma, in the assay with NCI/ADR-RES ovarian and in the assay with NCI-H522 lung were more than 100 µM, 20.5 µM and 66.3 µM, respectively. Besides, the TGI in the assay on CCRF-CEM leukemia, in the assay on CAKI-1 renal, with MCF7 breast, in the assay with RPMI-8226 leukemia, with SK-MEL-28 melanoma and with UACC-62 melanoma was more than 100 µM throughout. Moreover, the TGI in the assay on SK-MEL-2 melanoma is more than 100 µM; in the assay with NCI/ADR-RES ovarian, 43.4 µM; with NCI-H522 lung it was more than 100 µM.
